Experimental data: patent publication US12163953B2, “P-phenylene ethynylene compounds as bioactive and detection agents” (STC.UNM, priority 2014, dated 2024)

Tests used:
[1] = Absorbance/fluorescence spectroscopy and fluorescence quantum yield (comparative method) of PEs and PE/substrate aggregates; type: physicochemical
[2] = Photophysical properties of PEs alone (excitation/emission spectra, fluorescence yield); type: physicochemical; settings: for λem (PB): phosphate buffer; for λex (PB), high-energy band / λex (PB), low-energy band: phosphate buffer pH 7.4, 10 mM, PE 500 nM
Description: Excitation and emission spectra of PEs in phosphate buffer alone, with monomeric HEWL and with HEWL amyloids (8 h incubated) are shown in FIGS. 18A-H, and relevant photophysical properties are summarized in Table 1. FIGS. 18A-H illustrate excitation (A, B, C, D) and emission (right; E, F, G. H) spectra of PEs (A, E: PE1+; B, F: PE1−; C, G: PE2+; D, H: […]) alone (long dashed line) with HEWL monomers (short dashed line) and with HEWL amyloids (solid line); PE concentration: 500 nM, protein concentration: 5 μM monomer basis/0.25 mg/mL; emission and excitation wavelengths, respectively, were chosen as shown in Table 1 for each sample. A 10:1 molar ratio of protein to PE was used for these experiments. Absorbance spectra were taken, but background light scattering from insoluble amyloid aggregates made them difficult to interpret, so “fluorescence detected absorbance” in the form of excitation spectra was used instead. Normalized excitation and emission spectra, in which peak shifts and lineshape changes of spectra were somewhat easier to visualize, were used. […] PE1+ (FIG. 18E) had no change in wavelength or lineshape of emission spectrum, just a large increase in intensity when mixed with amyloids. The excitation spectra (FIGS. 18A, B, C, D) show a notable bathochromic shift for each PE in solution mixed with amyloid, of 23, 27, 35 and 29 nm for PE1+, PE2+, PE3+ and PE1−, respectively, observing only the low-energy band. The high-energy band, less relevant for imaging purposes, was also bathochromically shifted. […] PE1− had similar excitation spectrum (FIG. 18B) with monomer and amyloid, except for a large intensity difference.
(§1) For studies of fluorescence enhancement vs. protein incubation time, dyes were mixed with protein sample in phosphate buffer (10 mM, pH 7.4) at equal monomer concentration of 10 μM in the wells of a standard 96-well plate. Emission spectra were obtained using top read with a SpectraMax M2e plate-reading spectrophotometer (Molecular Devices, Sunnyvale, CA). Experiments were performed in duplicate and errors are reported as standard deviation. For analysis of bound PE excitation and emission spectra and protein-PE energy transfer, PEs (500 nM) were mixed with protein sample (5 μM, monomer basis) in phosphate buffer and the solution transferred to a quartz, fluorometry cuvette. Spectra were obtained on a PTI QuantaMaster 40 steady state spectrofluorometer (HORIBA Scientific, Edison, NJ).

HEWL amyloids = biological target: T1, HEWL amyloids (Gallus gallus, UniProt P00698); assay: HEWL to PE Förster resonance energy transfer; type: binding, hen; settings: excitation 280 nm
T1 construct: Lyophilized HEWL was dissolved at 10 mg/mL in 10 mM pH 3 sodium citrate buffer with 0.1 M NaCl; purchased Sigma-Aldrich; host or cells: hen egg white; fibrillised in house (pH 3, 70 °C, stirred)
T1 sequence (P00698 19-147): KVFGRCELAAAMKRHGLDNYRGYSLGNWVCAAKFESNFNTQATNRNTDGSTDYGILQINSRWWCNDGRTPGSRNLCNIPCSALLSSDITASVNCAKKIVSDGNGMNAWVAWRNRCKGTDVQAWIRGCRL
Source text: The results are summarized as FRET efficiencies in FIG. 20, illustrating HEWL ? PE FRET efficiencies calculated from spectral data by the equation E=FA/(FD+FA) where FD is the integrated area under the donor emission peak, and FA is the integrated area under the acceptor emission peak. This simple expression is valid for this case since the PEs are nonfluorescent when excited at the donor excitation wavelength, eliminating crosstalk. Thus, FA is the total number of energy transfer events, and (FA+FD) is the total number of excitation events. Theoretically, the efficiencies should be convertible into distances by
as §1, with “Spectra were obtained on a PTI QuantaMaster 40 steady state spectrofluorometer (HORIBA Scientific, Edison, NJ).” left out

[3] = in water; cited from earlier work

SMILES	centre of structured emission upon aggregation with substrate ([1]; +2C with DLPG, −1C with LaCh)	fluorescence quantum yield of aggregate with DLPG ([1]; […] PE with 16 uM DLPG)	fluorescence enhancement on aggregation with DLPG ([1]; at 440 nm)	fluorescence quantum yield, PE alone ([1]; in water, corrected value of this study)	λem (H2O) [2]	φfl (H2O) [2]	φfl (MeOH) [2]	λem (PB) [2]	λex (PB), high-energy band [2]	λex (PB), low-energy band [2]	HEWL to PE FRET efficiency, relative (HEWL amyloids)	fluorescence quantum yield, previously reported value [3]
CCOC(=O)c1ccc(C#Cc2cc(OCC[N+](C)(C)C)c(C#Cc3ccc(C#Cc4cc(OCC[N+](C)(C)C)c(C#Cc5ccc(C(=O)OCC)cc5)cc4OCC[N+](C)(C)C)cc3)cc2OCC[N+](C)(C)C)cc1 [PE2+]	450 nm	0.63	39 times	≤ 0.016	448 nm	0.039	0.71	460 nm	330 nm	399 nm	highest efficiency	0.039
CCOC(=O)c1ccc(C#Cc2cc(OCC[N+](C)(C)C)c(C#Cc3ccc(C#Cc4cc(OCC[N+](C)(C)C)c(C#Cc5ccc(C#Cc6cc(OCC[N+](C)(C)C)c(C#Cc7ccc(C(=O)OCC)cc7)cc6OCC[N+](C)(C)C)cc5)cc4OCC[N+](C)(C)C)cc3)cc2OCC[N+](C)(C)C)cc1 [PE3+]					440 nm	0.069	0.70	464 nm	340 nm	399 nm		
